Common to all, as to experiment: Assay B: in vitro antibacterial activity, broth microdilution MIC (NCCLS)
What all share (type): cell-based
A general note: Broth dilution looks for growth in wells or tubes with falling amounts of substance.

Assay [1] deals with Enterococcus faecalis PIU 1967. As to conditions: Table 2, Assay B, cation-adjusted Mueller Hinton broth, 35° C., 16 to 20 hr; code B = Enterococcus faecalis PIU 1967; unit assumed. A digest of the protocol: (§1)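 Serial two-fold dilutions in cation-adjusted Mueller Hinton broth; inoculum ~5×10^5 CFU/mL from overnight cultures; 35° C, ambient air, 16 to 20 hr. MIC read visually as lowest concentration completely inhibiting growth. S. pneumoniae: 3% lysed horse blood, 20 to 24 hr; H. influenzae: 5 g/L yeast extract, 0.3 mmol/L hematin, 15 mg/L NAD, 20 to 24 hr.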

In assay [2] the test system is Haemophilus influenzae DILL AMP R. As to conditions: Table 2, Assay B, Mueller Hinton broth with yeast extract, hematin and NAD, 20 to 24 hr; code E = Haemophilus influenzae DILL AMP R; unit assumed. A digest of the protocol:
as §1

Assay [3] concerns Streptococcus pneumoniae ATCC 6303. As to conditions: Table 2, Assay B, Mueller Hinton broth with 3% lysed horse blood, 20 to 24 hr; code F = Streptococcus pneumoniae ATCC 6303; unit assumed. Put shortly: as §1
The subject of assay [4] is Staphylococcus aureus ATCC 6538P. As to conditions: Table 2, Assay B, cation-adjusted Mueller Hinton broth, 35° C., 16 to 20 hr; code A = Staphylococcus aureus ATCC 6538P; unit assumed. Put shortly: as §1
In another assay the test system is Escherichia coli JUHL. As to conditions: Table 2, Assay B, cation-adjusted Mueller Hinton broth, 35° C., 16 to 20 hr; code D = Escherichia coli JUHL; unit assumed. Put shortly: as §1

In assay [1], `COc1c(-c2cc3c(s2)C(O)CNC3)ccc2c(=O)c(C(=O)O)cn(C3CC3)c12` (centres unmarked) [Example 202, 1-cyclopropyl-7-(7-hydroxy-4,5,6,7-tetrahydrothieno[3,2-c]pyridin-2-yl)-8-methoxy-4-oxo-1,4-dihydro-3-quinolinecarboxylic acid] returned an Antibacterial Activity (MIC's), B of 0.5 µg/mL. For the same molecule, the Antibacterial Activity (MIC's), E in assay [2] came out at 0.015 µg/mL. In assay [3], this molecule gave an Antibacterial Activity (MIC's), F of 0.25 µg/mL. In assay [4], this molecule yielded an Antibacterial Activity (MIC's), A of 0.125 µg/mL. The same molecule came in with an Antibacterial Activity (MIC's), D with Escherichia coli JUHL of 0.125 µg/mL.
`COc1c(-c2cc3c(s2)CCC(F)(F)C3O)ccc2c(=O)c(C(=O)O)cn(C3CC3)c12` (centres unmarked) [Example 204, 1-cyclopropyl-7-(5,5-difluoro-4-hydroxy-4,5,6,7-tetrahydro-1-benzothien-2-yl)-8-methoxy-4-oxo-1,4-dihydro-3-quinolinecarboxylic acid] came in with an Antibacterial Activity (MIC's), B in assay [1] of 0.03 µg/mL. Moreover, in assay [2], the Antibacterial Activity (MIC's), E is at most 0.004 µg/mL. This molecule showed an Antibacterial Activity (MIC's), F in assay [3] of 0.125 µg/mL. Also, in assay [4], the Antibacterial Activity (MIC's), A was at most 0.004 µg/mL. In the assay on Escherichia coli JUHL, this molecule gave an Antibacterial Activity (MIC's), D of 0.125 µg/mL.
Consider `COc1c(-c2cc3c(s2)CCC(F)(F)C3N)ccc2c(=O)c(C(=O)O)cn(C3CC3)c12` (centres unmarked) [Example 206, 7-(4-amino-5,5-difluoro-4,5,6,7-tetrahydro-1-benzothien-2-yl)-1-cyclopropyl-8-methoxy-4-oxo-1,4-dihydro-3-quinolinecarboxylic acid], for which the Antibacterial Activity (MIC's), B in assay [1] is 0.125 µg/mL. The Antibacterial Activity (MIC's), E in assay [2] is 0.5 µg/mL. This molecule had an Antibacterial Activity (MIC's), F in assay [3] of 0.5 µg/mL. In addition, the Antibacterial Activity (MIC's), A in assay [4] turned out to be 0.03 µg/mL. Further, the Antibacterial Activity (MIC's), D with Escherichia coli JUHL amounted to 1 µg/mL.
`COc1c(-c2cc3c(s2)CCC(C)(CO)C3=O)ccc2c(=O)c(C(=O)O)cn(C3CC3)c12` (centres unmarked) [Example 207, 1-cyclopropyl-7-(5-(hydroxymethyl)-5-methyl-4-oxo-4,5,6,7-tetrahydro-1-benzothien-2-yl)-8-methoxy-4-oxo-1,4-dihydro-3-quinolinecarboxylic acid] returned an Antibacterial Activity (MIC's), B in assay [1] of 0.125 µg/mL. In assay [2], this molecule yielded an Antibacterial Activity (MIC's), E of 0.125 µg/mL. The Antibacterial Activity (MIC's), F in assay [3] was determined as 0.5 µg/mL. Also, the Antibacterial Activity (MIC's), A in assay [4] is 0.015 µg/mL. Moreover, the Antibacterial Activity (MIC's), D in the assay on Escherichia coli JUHL turned out to be 1 µg/mL.
`COc1c(-c2cc3c(s2)C(N)CNC3)ccc2c(=O)c(C(=O)O)cn(C3CC3)c12` (centres unmarked) [Example 208, 7-(7-amino-4,5,6,7-tetrahydrothieno[3,2-c]pyridin-2-yl)-1-cyclopropyl-8-methoxy-4-oxo-1,4-dihydro-3-quinolinecarboxylic acid] gave an Antibacterial Activity (MIC's), B in assay [1] of 0.5 µg/mL. The molecule also came in with an Antibacterial Activity (MIC's), E in assay [2] of 0.06 µg/mL. The same molecule yielded an Antibacterial Activity (MIC's), F in assay [3] of 0.25 µg/mL. Moreover, the Antibacterial Activity (MIC's), A in assay [4] came out at 0.125 µg/mL. The Antibacterial Activity (MIC's), D with Escherichia coli JUHL was 0.25 µg/mL.
`COc1c(-c2cc3c(s2)CNCC3O)ccc2c(=O)c(C(=O)O)cn(C3CC3)c12` (centres unmarked) [Example 209, 1-cyclopropyl-7-(4-hydroxy-4,5,6,7-tetrahydrothieno[2,3-c]pyridin-2-yl)-8-methoxy-4-oxo-1,4-dihydro-3-quinolinecarboxylic acid] returned an Antibacterial Activity (MIC's), B in assay [1] of 0.5 µg/mL. Further, the Antibacterial Activity (MIC's), E in assay [2] stood at 0.03 µg/mL. In assay [3], the Antibacterial Activity (MIC's), F turned out to be 0.25 µg/mL. The molecule also had an Antibacterial Activity (MIC's), A in assay [4] of 0.125 µg/mL. This molecule showed an Antibacterial Activity (MIC's), D in the assay with Escherichia coli JUHL of 0.25 µg/mL.
For `CNC1CCCc2sc(-c3c(F)cc4c(=O)c(C(=O)O)cn(C5CC5)c4c3OC)cc21.Cl` (centres unmarked) [Example 210, 1-cyclopropyl-6-fluoro-8-methoxy-7-(4-(methylamino)-4,5,6,7-tetrahydro-1-benzothien-2-yl)-4-oxo-1,4-dihydro-3-quinolinecarboxylic acid hydrochloride], the Antibacterial Activity (MIC's), B in assay [1] was determined as 0.125 µg/mL. Moreover, the Antibacterial Activity (MIC's), E in assay [2] was determined as 0.03 µg/mL. In assay [3], this molecule had an Antibacterial Activity (MIC's), F of 0.06 µg/mL. In assay [4], this molecule returned an Antibacterial Activity (MIC's), A of 0.06 µg/mL. This molecule came in with an Antibacterial Activity (MIC's), D with Escherichia coli JUHL of 0.25 µg/mL.
The molecule `COc1c(-c2cc3c(s2)CCCC3N2CC(N)C2)ccc2c(=O)c(C(=O)O)cn(C3CC3)c12.Cl.Cl` (centres unmarked) [Example 212, 7-[4-(3-amino-1-azetidinyl)-4,5,6,7-tetrahydro-1-benzothien-2-yl]-1-cyclopropyl-8-methoxy-4-oxo-1,4-dihydro-3-quinolinecarboxylic acid dihydrochloride] displayed an Antibacterial Activity (MIC's), B in assay [1] of 0.5 µg/mL. This molecule also gave an Antibacterial Activity (MIC's), E in assay [2] of 0.25 µg/mL. The molecule also yielded an Antibacterial Activity (MIC's), F in assay [3] of 0.125 µg/mL. Further, the Antibacterial Activity (MIC's), A in assay [4] turned out to be 0.125 µg/mL. For the same molecule, the Antibacterial Activity (MIC's), D in the assay with Escherichia coli JUHL was determined as 0.5 µg/mL.
Take `CNC1CCCc2cc(-c3ccc4c(=O)c(C(=O)O)cn(C5CC5)c4c3OC)sc21.Cl` (centres unmarked) [Example 216, 1-cyclopropyl-8-methoxy-7-(7-(methylamino)-4,5,6,7-tetrahydro-1-benzothien-2-yl)-4-oxo-1,4-dihydro-3-quinolinecarboxylic acid hydrochloride]: the Antibacterial Activity (MIC's), B in assay [1] came out at 0.25 µg/mL. The molecule further had an Antibacterial Activity (MIC's), E in assay [2] of 0.125 µg/mL. The Antibacterial Activity (MIC's), F in assay [3] stood at 0.125 µg/mL. Also, the Antibacterial Activity (MIC's), A in assay [4] was 0.06 µg/mL. In the assay with Escherichia coli JUHL, this molecule registered an Antibacterial Activity (MIC's), D of 0.25 µg/mL.
As for `COc1c(-c2cc3c(s2)C(O)CCC3(C)C)ccc2c(=O)c(C(=O)O)cn(C3CC3)c12` (centres unmarked) [Example 218, 1-cyclopropyl-7-(7-hydroxy-4,4-dimethyl-4,5,6,7-tetrahydro-1-benzothien-2-yl)-8-methoxy-4-oxo-1,4-dihydro-3-quinolinecarboxylic acid], the Antibacterial Activity (MIC's), B in assay [1] amounted to 0.25 µg/mL. The Antibacterial Activity (MIC's), E in assay [2] came out at 0.25 µg/mL. For the same molecule, the Antibacterial Activity (MIC's), F in assay [3] was found to be 0.5 µg/mL. In assay [4], this molecule returned an Antibacterial Activity (MIC's), A of 0.06 µg/mL. In addition, the Antibacterial Activity (MIC's), D in the assay with Escherichia coli JUHL came out at 2 µg/mL.
Turning to `COc1c(-c2cc3c(s2)C(N)CCC3(C)C)ccc2c(=O)c(C(=O)O)cn(C3CC3)c12.Cl` (centres unmarked) [Example 222, 7-(7-amino-4,4-dimethyl-4,5,6,7-tetrahydro-1-benzothien-2-yl)-1-cyclopropyl-8-methoxy-4-oxo-1,4-dihydro-3-quinolinecarboxylic acid hydrochloride], in assay [1], the Antibacterial Activity (MIC's), B was 0.5 µg/mL. Moreover, the Antibacterial Activity (MIC's), E in assay [2] is 0.5 µg/mL. The same molecule gave an Antibacterial Activity (MIC's), F in assay [3] of 0.25 µg/mL. In addition, the Antibacterial Activity (MIC's), A in assay [4] was 0.125 µg/mL. This molecule also had an Antibacterial Activity (MIC's), D in the assay on Escherichia coli JUHL of 1 µg/mL.
Regarding `COc1c(-c2cc3c(s2)CCCC3N)c(F)cc2c(=O)c(C(=O)O)cn(C3CC3)c12.Cl` (centres unmarked) [Example 224, 7-(4-amino-4,5,6,7-tetrahydro-1-benzothien-2-yl)-1-cyclopropyl-6-fluoro-8-methoxy-4-oxo-1,4-dihydro-3-quinolinecarboxylic acid hydrochloride], in assay [1], the Antibacterial Activity (MIC's), B was 0.03 µg/mL. The molecule also returned an Antibacterial Activity (MIC's), E in assay [2] of 0.015 µg/mL. Moreover, the Antibacterial Activity (MIC's), F in assay [3] is 0.03 µg/mL. Besides, the Antibacterial Activity (MIC's), A in assay [4] is 0.015 µg/mL. Also, in the assay with Escherichia coli JUHL, the Antibacterial Activity (MIC's), D turned out to be 0.125 µg/mL.
In turn, `COc1c(-c2cc3c(s2)CNCC3N)ccc2c(=O)c(C(=O)O)cn(C3CC3)c12` (centres unmarked) [Example 225, 7-(4-amino-4,5,6,7-tetrahydrothieno[2,3-c]pyridin-2-yl)-1-cyclopropyl-8-methoxy-4-oxo-1,4-dihydro-3-quinolinecarboxylic acid] had an Antibacterial Activity (MIC's), B in assay [1] of 0.5 µg/mL. The molecule further showed an Antibacterial Activity (MIC's), E in assay [2] of 0.125 µg/mL. Further, the Antibacterial Activity (MIC's), F in assay [3] was determined as 0.25 µg/mL. Besides, in assay [4], the Antibacterial Activity (MIC's), A worked out at 0.5 µg/mL. The molecule also displayed an Antibacterial Activity (MIC's), D with Escherichia coli JUHL of 1 µg/mL.
`COc1c(-c2cc3c(s2)CCCC3(C)C)ccc2c(=O)c(C(=O)O)cn(C3CC3)c12` [Example 227, 1-cyclopropyl-7-(4,4-dimethyl-4,5,6,7-tetrahydro-1-benzothien-2-yl)-8-methoxy-4-oxo-1,4-dihydro-3-quinolinecarboxylic acid] returned an Antibacterial Activity (MIC's), B in assay [1] of 2 µg/mL. In assay [2], the Antibacterial Activity (MIC's), E came to 2 µg/mL. For the same molecule, the Antibacterial Activity (MIC's), F in assay [3] stood at 8 µg/mL. Also, the Antibacterial Activity (MIC's), A in assay [4] was 0.5 µg/mL. This molecule also returned an Antibacterial Activity (MIC's), D in the assay with Escherichia coli JUHL of over 64 µg/mL.
Molecule `COc1c(-c2cc3c(s2)C(N)CN(S(C)(=O)=O)C3)ccc2c(=O)c(C(=O)O)cn(C3CC3)c12` (centres unmarked) [Example 230, 7-(7-amino-5-(methylsulfonyl)-4,5,6,7-tetrahydrothieno[3,2-c]pyridin-2-yl)-1-cyclopropyl-8-methoxy-4-oxo-1,4-dihydro-3-quinolinecarboxylic acid] gave an Antibacterial Activity (MIC's), B in assay [1] of 1 µg/mL. In addition, the Antibacterial Activity (MIC's), E in assay [2] stood at 0.25 µg/mL. In assay [3], this molecule gave an Antibacterial Activity (MIC's), F of 0.125 µg/mL. In assay [4], the Antibacterial Activity (MIC's), A is 0.125 µg/mL. In the assay with Escherichia coli JUHL, this molecule gave an Antibacterial Activity (MIC's), D of 1 µg/mL.
Consider `COc1c(-c2sc3c(c2C)C(N)CCC3)ccc2c(=O)c(C(=O)O)cn(C3CC3)c12.Cl` (centres unmarked) [Example 232, 7-(4-amino-3-methyl-4,5,6,7-tetrahydro-1-benzothien-2-yl)-1-cyclopropyl-8-methoxy-4-oxo-1,4-dihydro-3-quinolinecarboxylic acid hydrochloride], for which the Antibacterial Activity (MIC's), B in assay [1] is 0.5 µg/mL. This molecule also had an Antibacterial Activity (MIC's), E in assay [2] of 0.125 µg/mL. For the same molecule, the Antibacterial Activity (MIC's), F in assay [3] amounted to 0.125 µg/mL. The molecule also displayed an Antibacterial Activity (MIC's), A in assay [4] of 0.06 µg/mL. Further, in the assay with Escherichia coli JUHL, the Antibacterial Activity (MIC's), D came out at 0.25 µg/mL.

The record behind these values is patent US20020049223A1, “Quinoline and naphthyridine carboxylic acid antibacterials” (priority 1999, published 2002).
